Reference: patent EP0752465A1, “Betaine esters for delivery of alcohols” (THE PROCTER & GAMBLE COMPANY, priority 1995, dated 1997)
Like-named read-outs stand apart in the source and are kept apart here. Blank lines part the entries; values can stand above or below the molecule they belong to.

Assay: Hydrolysis rate of betaine ester, pH-stat titrator at constant pH and temperature
Assay type: physicochemical
Details: for profile of hydrolysis: dependence on pH
Description: Test realised under pH-stat configuartion, at controlled temperature (40°C). Concentration in betaine ester used 1.5.10^-2 mol/l
[formula] Test conditions: C12 BEG added to a solution (pH 10.5) of sodium stearate in distilled water. pH and temperature maintained constant all along the test. Percentage of C12 BEG hydrolysed assessed using an automatic pH stat titrator. Concentrations used: C12 BEG 1.25 10^-2 mol/l Sodium stearate: 1 equivalent 1.25 10^-2 mol/l 2 equivalents 2.5 10^-2 mol/l
[formula] • Hydrolysis rate determined with a Radiometer pH stat. • Temperature (40°C) and pH (10.5) maintained constant. Concentration in C12 BEG or new ion pair C12 BEG/DS: 10^-3 mol/l. • Mixture anionic/nonionic: sodium dodecylsulfate (0.43 g/l), sodium stearate (0.013 g/l), alkylethoxylate (Dobanol 45 7 from Shell, 0.38 g/l), N-cocoyl-N-methylglucamine (0.16 g/l). • Kinetics of hydrolysis of C12 BEG/DS, with or without surfactants all follow a first order in [C12BEG/DS].

[1] = 40°C, pH 10.5, with 1 equivalent of sodium dodecylsulfate
[2] = 40°C, pH 10.5, with 3 equivalents of sodium dodecylsulfate
[3] = 40°C, pH 10.5, with 5 equivalents of sodium dodecylsulfate
[4] = 40°C, pH 10.5, with 10 equivalents of sodium dodecylsulfate
[5] = 40°C, pH 8.5, 1.25 10^-2 mol/l, alone
[6] = 40°C, pH 8.5, with 1 equivalent sodium stearate
[7] = 40°C, pH 8.5, with 2 equivalent sodium stearate
[8] = 40°C, pH 10.5, 1.25 10^-2 mol/l, with 2 equivalents of sodium dodecylsulfate
[9] = 40°C, pH 10.5, 1.25 10^-2 mol/l, with 4 equivalents of sodium dodecylsulfate
[10] = 40°C, pH 10.5, 1.25 10^-2 mol/l, with 9 equivalents of sodium dodecylsulfate
[11] = 40°C, pH 10.5, 10^-3 mol/l, with mixture anionic/nonionic
[12] = 40°C, pH 10.5, 10^-3 mol/l, with sodium dodecylsulfate only
[13] = 40°C, pH 10.5, ion pair 1.25 10^-2 mol/l alone
[14] = 40°C, pH 10.5, ion pair 10^-3 mol/l alone

- k (40°C, pH 10.5, alone): 3950 mol^- ^1.l.min^-1
- kobs at pH 10.5 (40°C, pH 10.5, alone): 1.25 min^-1
- k [1]: 202 mol^- ^1.l.min^-1
- kobs at pH 10.5 [1]: 0.064 min^-1
- k [2]: 35 mol^- ^1.l.min^-1
- kobs at pH 10.5 [2]: 0.0111 min^-1
- k [3]: 23.5 mol^- ^1.l.min^-1
- kobs at pH 10.5 [3]: 0.0074 min^-1
- k [4]: 21 mol^- ^1.l.min^-1
- kobs at pH 10.5 [4]: 0.0067 min^-1
- half-life (buffer, pH 10.5, 40°C, pH 10.5, alone, read-out: t1/2 at pH 10.5): ~0.5 min
- profile of hydrolysis: very dependent on pH
- Hydrolysis profile (pH-stat, 40°C, betaine ester 1.5.10^-2 mol/l): very pH dependent
- half-life (solution with 1 equivalent sodium dodecylsulfate, pH 10.5, 40°C, pH 10.5, with 1 equivalent of sodium dodecylsulfate, read-out: t1/2 at pH 10.5): 10.8 min
- half-life (solution with 3 equivalents sodium dodecylsulfate, pH 10.5, 40°C, pH 10.5, with 3 equivalents of sodium dodecylsulfate, read-out: t1/2 at pH 10.5): 63 min
- half-life (solution with 5 equivalents sodium dodecylsulfate, pH 10.5, 40°C, pH 10.5, with 5 equivalents of sodium dodecylsulfate, read-out: t1/2 at pH 10.5): 93 min
- half-life (solution with 10 equivalents sodium dodecylsulfate, pH 10.5, 40°C, pH 10.5, with 10 equivalents of sodium dodecylsulfate, read-out: t1/2 at pH 10.5): 104 min
Compound: CC(C)=CCC/C(C)=C/COC(=O)C[N+](C)(C)C.[Cl-] [BEG, geranyloxycarbonyl-N,N,N-trimethylmethanaminium chloride]

- kobs at pH 8.5 (40°C, alone): >30 min^-1
- k [5]: >100 000 mol^- ^1.l.min^-1
- kobs at pH 8.5 [5]: >0.3 min^-1
- k [6]: 20 333 mol^- ^1.l.min^-1
- kobs at pH 8.5 [6]: 0.0643 min^-1
- k [7]: 904 mol^- ^1.l.min^-1
- kobs at pH 8.5 [7]: 0.00286 min^-1
- k (40°C, pH 10.5, 1.25 10^-2 mol/l, alone): >100 000 mol^- ^1.l.min^-1
- k (40°C, pH 10.5, 10^-3 mol/l, alone): >15000 mol^- ^1.l.min^-1
- k (40°C, pH 10.5, alone): >100 000 mol^- ^1.l.min^-1
- k obs (40°C, pH 10.5, high betaine ester concentration 1.25 10^-2 mol/l, alone): >30 min⁻¹
- k obs (40°C, pH 10.5, lower concentration 10^-3 mol/l, alone): >5 min⁻¹
- k (40°C, pH 10.5, with 1 equivalent sodium dodecylsulfate): 5.3 mol^- ^1.l.min^-1
- k (40°C, pH 10.5, with 1 equivalent sodium hexadecylsulfonate): 1580 mol^- ^1.l.min^-1
- k (40°C, pH 10.5, with 2 equivalents sodium stearate): 1265 mol^- ^1.l.min^-1
- kobs at pH 8.5 (40°C, with 1 equivalent sodium dodecylsulfate): 0.0017 min^-1
- kobs at pH 8.5 (40°C, with 1 equivalent sodium hexadecylsulfonate): 0.5 min^-1
- kobs at pH 8.5 (40°C, with 2 equivalents sodium stearate): 0.4 min^-1
- half-life at 0.0125 mol/l (buffer, pH 8.5, 40°C, pH 8.5, 1.25 10^-2 mol/l, alone, read-out: t1/2 pH 8.5): < 2 min
- half-life at 0.0125 mol/l (buffer, pH 10.5, 40°C, pH 10.5, 1.25 10^-2 mol/l, alone, read-out: t1/2): < 0.0333 min
- half-life (buffer, pH 10.5, 40°C, pH 10.5, 10^-3 mol/l, alone, read-out: t1/2): < 0.167 min
- half-life (buffer, pH 10.5, 40°C, pH 10.5, alone, read-out: t1/2 pH 10.5): < 0.0333 min
- rate of hydrolysis at pH neutral (∼7) (compared with a normal ester, C12 BEG 1.25 10^-2 mol/l): far faster than for a normal ester
- profile of hydrolysis: very dependent on pH
- half-life at 0.0125 mol/l (sodium stearate solution in distilled water (1 equivalent), pH 8.5, 40°C, pH 8.5, with 1 equivalent sodium stearate, read-out: t1/2 pH 8.5): 11 min
- half-life at 0.0125 mol/l (sodium stearate solution in distilled water (2 equivalents), pH 8.5, 40°C, pH 8.5, with 2 equivalent sodium stearate, read-out: t1/2 pH 8.5): 243 min
- half-life at 0.0125 mol/l (sodium stearate solution in distilled water (2 equivalents), pH 10.5, 40°C, pH 10.5, with 2 equivalents sodium stearate, read-out: t1/2 pH 10.5): 1.7 min
- half-life (solution with 1 equivalent sodium dodecylsulfate, pH 10.5, 40°C, pH 10.5, with 1 equivalent sodium dodecylsulfate, read-out: t1/2 pH 10.5): 414 min
- half-life (solution with 1 equivalent sodium hexadecylsulfonate, pH 10.5, 40°C, pH 10.5, with 1 equivalent sodium hexadecylsulfonate, read-out: t1/2 pH 10.5): 1.4 min
Compound: CCCCCCCCCCCC[N+](C)(C)CC(=O)OC/C=C(\C)CCC=C(C)C.[Br-] [C12 BEG, Geranyloxycarbonyl-N,N-dimethyl-N-dodecylmethanaminium bromide]

- k [8]: 10.6 mol^- ^1.l.min^-1
- k obs [8]: 0.0034 min⁻¹
- t1/2 (40°C, pH 10.5, 1.25 10^-2 mol/l, with 2 equivalents of sodium dodecylsulfate, 12500 µM): 206 min
- k [9]: 26.1 mol^- ^1.l.min^-1
- k obs [9]: 0.0083 min⁻¹
- t1/2 (40°C, pH 10.5, 1.25 10^-2 mol/l, with 4 equivalents of sodium dodecylsulfate, 12500 µM): 84 min
- k [10]: 32.8 mol^- ^1.l.min^-1
- k obs [10]: 0.0104 min⁻¹
- t1/2 (40°C, pH 10.5, 1.25 10^-2 mol/l, with 9 equivalents of sodium dodecylsulfate, 12500 µM): 67 min
- k [11]: 37 mol^- ^1.l.min^-1
- k obs [11]: 0.01169 min⁻¹
- t1/2 (40°C, pH 10.5, 10^-3 mol/l, with mixture anionic/nonionic, 1000 µM): 59 min
- k [12]: 28.6 mol^- ^1.l.min^-1
- k obs [12]: 0.0095 min⁻¹
- t1/2 (40°C, pH 10.5, 10^-3 mol/l, with sodium dodecylsulfate only, 1000 µM): 77 min
- k [13]: 229 mol^- ^1.l.min^-1
- k obs [13]: 0.0724 min⁻¹
- t1/2 (40°C, pH 10.5, ion pair 1.25 10^-2 mol/l alone, 12500 µM): 9.6 min
- k [14]: 423.7 mol^- ^1.l.min^-1
- k obs [14]: 0.134 min⁻¹
- t1/2 (40°C, pH 10.5, ion pair 10^-3 mol/l alone, 1000 µM): 5.2 min
Compound: CCCCCCCCCCCCOS(=O)(=O)[O-].CCCCCCCCCCCC[N+](C)(C)CC(=O)OC/C=C(\C)CCC=C(C)C [C12 BEG/DS]
